Measured values as given in US20250129062A1, “AMORPHOUS SUBSTANCES, CRYSTALS, PHARMACEUTICAL COMPOSITIONS, PREPARATION METHODS AND USES OF THIOHYDANTOIN COMPOUND OR PHARMACEUTICALLY ACCEPTABLE SALT THEREOF” (SUZHOU KINTOR PHARMACEUTICALS, INC., priority 2021, published 2025).
≈ marks a conversion by molar mass, not a printed value. Like-named read-outs stand apart in the source and are kept apart here.

Test: Solubility of amorphous substance in solvent systems (supersaturated solution, oscillated 24 h at room temperature, HPLC)
Assay type: physicochemical
Conditions: for solubility at 24 h: thermodynamic from solid
Description: The amorphous substance of the compound of formula I was prepared into supersaturated solutions with different solvents, and oscillated under a room temperature condition (a constant temperature). After oscillating for 24 h, sampling was performed, and the content of the sample was detected by HPLC under condition 1.
Condition 1: • Chromatographic column: C18 (150 mm×4.6 mm×3.5 μm); • Mobile phase: binary mobile phase system, mobile phase A was 0.1% formic acid in water, mobile phase B was acetonitrile; • Elution time: 68 min; • Elution mode: gradient elution (in the gradient elution process, mobile phase A had the maximum volume percentage of 95% and the minimum volume percentage of 10%); • Detection wavelength: 270 nm.

## Cc1ncsc1-c1ccc(CNC(=O)[C@@H]2C[C@@H](O)CN2C(=O)[C@@H](NC(=O)COCCCCOc2ccc(-c3ccc(N4C(=S)N(c5ccc(C#N)c(C(F)(F)F)c5F)C(=O)C4(C)C)cn3)cc2)C(C)(C)C)cc1
Dehydrated alcohol 35%-propylene glycol 45%-water 20% (w/w)
  Solubility: >154310 µg/mL
Dehydrated alcohol 40%-propylene glycol 50%-water 10% (w/w)
  Solubility: >64560 µg/mL
Dehydrated alcohol 10%-propylene glycol 20%-water 70% (w/w), aqueous with cosolvent or surfactant or cyclodextrin, Dehydrated alcohol 10%-propylene glycol 20%-water 70% (w/w), read-out: Solubility
  solubility at 24 h: 30 µg/mL (≈ 0.0288 mM)
Dehydrated alcohol 10%-propylene glycol 30%-water 60% (w/w), aqueous with cosolvent or surfactant or cyclodextrin, Dehydrated alcohol 10%-propylene glycol 30%-water 60% (w/w), read-out: Solubility
  solubility at 24 h: 450 µg/mL (≈ 0.431 mM)
Dehydrated alcohol 10%: water 90% (w/w), aqueous with cosolvent or surfactant or cyclodextrin, Dehydrated alcohol 10%: water 90% (w/w), read-out: 24 h solubility
  solubility at 24 h: 140 µg/mL (≈ 0.134 mM)
Dehydrated alcohol 20%-propylene glycol 20%-water 60% (w/w), aqueous with cosolvent or surfactant or cyclodextrin, Dehydrated alcohol 20%-propylene glycol 20%-water 60% (w/w), read-out: Solubility
  solubility at 24 h: 80 µg/mL (≈ 0.0767 mM)
Dehydrated alcohol 20%-propylene glycol 30%-water 50% (w/w), aqueous with cosolvent or surfactant or cyclodextrin, Dehydrated alcohol 20%-propylene glycol 30%-water 50% (w/w), read-out: Solubility
  solubility at 24 h: 440 µg/mL (≈ 0.422 mM)
Dehydrated alcohol 20%-propylene glycol 40%-water 40% (w/w), aqueous with cosolvent or surfactant or cyclodextrin, Dehydrated alcohol 20%-propylene glycol 40%-water 40% (w/w), read-out: Solubility
  solubility at 24 h: 3790 µg/mL (≈ 3.63 mM)
Dehydrated alcohol 20%-propylene glycol 50%-water 30% (w/w), aqueous with cosolvent or surfactant or cyclodextrin, Dehydrated alcohol 20%-propylene glycol 50%-water 30% (w/w), read-out: Solubility
  solubility at 24 h: 12600 µg/mL (≈ 12.1 mM)
Dehydrated alcohol 20%: water 80% (w/w), aqueous with cosolvent or surfactant or cyclodextrin, Dehydrated alcohol 20%: water 80% (w/w), read-out: 24 h solubility
  solubility at 24 h: 140 µg/mL (≈ 0.134 mM)
Dehydrated alcohol 30%: water 70% (w/w), aqueous with cosolvent or surfactant or cyclodextrin, Dehydrated alcohol 30%: water 70% (w/w), read-out: 24 h solubility
  solubility at 24 h: 110 µg/mL (≈ 0.105 mM)
Dehydrated alcohol 35%-propylene glycol 45%-water 20% (w/w), aqueous with cosolvent or surfactant or cyclodextrin, Dehydrated alcohol 35%-propylene glycol 45%-water 20% (w/w), read-out: Solubility
  solubility at 24 h: > 154000 µg/mL
Dehydrated alcohol 40%-propylene glycol 50%-water 10% (w/w), aqueous with cosolvent or surfactant or cyclodextrin, Dehydrated alcohol 40%-propylene glycol 50%-water 10% (w/w), read-out: Solubility
  solubility at 24 h: > 64600 µg/mL
Dehydrated alcohol 40%: water 60% (w/w), aqueous with cosolvent or surfactant or cyclodextrin, Dehydrated alcohol 40%: water 60% (w/w), read-out: 24 h solubility
  solubility at 24 h: 510 µg/mL (≈ 0.489 mM)
Dehydrated alcohol 60%: water 40% (w/w), organic solvent or mixture, Dehydrated alcohol 60%: water 40% (w/w), read-out: 24 h solubility
  solubility at 24 h: 26000 µg/mL (≈ 24.9 mM)
Dehydrated alcohol 70%: water 30% (w/w), organic solvent or mixture, Dehydrated alcohol 70%: water 30% (w/w), read-out: 24 h solubility
  solubility at 24 h: > 34900 µg/mL
Dehydrated alcohol 80%: water 20% (w/w), organic solvent or mixture, Dehydrated alcohol 80%: water 20% (w/w), read-out: 24 h solubility
  solubility at 24 h: > 42100 µg/mL
Dehydrated alcohol 90%: water 10% (w/w), organic solvent or mixture, Dehydrated alcohol 90%: water 10% (w/w), read-out: 24 h solubility
  solubility at 24 h: > 77700 µg/mL
Dehydrated alcohol, organic solvent or mixture, solvent: Dehydrated alcohol, read-out: 24 h solubility
  solubility at 24 h: > 54000 µg/mL
Dehydrated alcohol-PEG400-water solvent mixture, aqueous with cosolvent or surfactant or cyclodextrin, Dehydrated alcohol 10%-PEG400 10%-water 80% (w/w), read-out: Solubility
  solubility at 24 h: 10 µg/mL (≈ 0.00959 mM)
Dehydrated alcohol-PEG400-water solvent mixture, aqueous with cosolvent or surfactant or cyclodextrin, Dehydrated alcohol 10%-PEG400 20%-water 70% (w/w), read-out: Solubility
  solubility at 24 h: 20 µg/mL (≈ 0.0192 mM)
Dehydrated alcohol-PEG400-water solvent mixture, aqueous with cosolvent or surfactant or cyclodextrin, Dehydrated alcohol 20%-PEG400 20%-water 60% (w/w), read-out: Solubility
  solubility at 24 h: 160 µg/mL (≈ 0.153 mM)
Dehydrated alcohol-PEG400-water solvent mixture, aqueous with cosolvent or surfactant or cyclodextrin, Dehydrated alcohol 20%-PEG400 30%-water 50% (w/w), read-out: Solubility
  solubility at 24 h: 910 µg/mL (≈ 0.872 mM)
Dehydrated alcohol-PEG400-water solvent mixture, aqueous with cosolvent or surfactant or cyclodextrin, Dehydrated alcohol 20%-PEG400 40%-water 40% (w/w), read-out: Solubility
  solubility at 24 h: 7900 µg/mL (≈ 7.57 mM)
Dehydrated alcohol-PEG400-water solvent mixture, aqueous with cosolvent or surfactant or cyclodextrin, Dehydrated alcohol 30%-PEG400 10%-water 60% (w/w), read-out: Solubility
  solubility at 24 h: 310 µg/mL (≈ 0.297 mM)
Dehydrated alcohol-PEG400-water solvent mixture, aqueous with cosolvent or surfactant or cyclodextrin, Dehydrated alcohol 30%-PEG400 20%-water 50% (w/w), read-out: Solubility
  solubility at 24 h: 1950 µg/mL (≈ 1.87 mM)
Dehydrated alcohol-PEG400-water solvent mixture, aqueous with cosolvent or surfactant or cyclodextrin, Dehydrated alcohol 30%-PEG400 30%-water 40% (w/w), read-out: Solubility
  solubility at 24 h: 11600 µg/mL (≈ 11.1 mM)
Dehydrated alcohol-PEG400-water solvent mixture, aqueous with cosolvent or surfactant or cyclodextrin, Dehydrated alcohol 30%-PEG400 40%-water 30% (w/w), read-out: Solubility
  solubility at 24 h: 89200 µg/mL (≈ 85.5 mM)
Dehydrated alcohol-PEG400-water solvent mixture, aqueous with cosolvent or surfactant or cyclodextrin, Dehydrated alcohol 35%-PEG400 30%-water 35% (w/w), read-out: Solubility
  solubility at 24 h: 35700 µg/mL (≈ 34.2 mM)
Dehydrated alcohol-PEG400-water solvent mixture, aqueous with cosolvent or surfactant or cyclodextrin, Dehydrated alcohol 35%-PEG400 35%-water 30% (w/w), read-out: Solubility
  solubility at 24 h: 117000 µg/mL (≈ 112 mM)
Dehydrated alcohol-PEG400-water solvent mixture, aqueous with cosolvent or surfactant or cyclodextrin, Dehydrated alcohol 35%-PEG400 40%-water 25% (w/w), read-out: Solubility
  solubility at 24 h: > 181000 µg/mL
Dehydrated alcohol-PEG400-water solvent mixture, aqueous with cosolvent or surfactant or cyclodextrin, Dehydrated alcohol 35%-PEG400 45%-water 20% (w/w), read-out: Solubility
  solubility at 24 h: > 258000 µg/mL
Dehydrated alcohol-PEG400-water solvent mixture, aqueous with cosolvent or surfactant or cyclodextrin, Dehydrated alcohol 40%-PEG400 10%-water 50% (w/w), read-out: Solubility
  solubility at 24 h: 3350 µg/mL (≈ 3.21 mM)
Dehydrated alcohol-PEG400-water solvent mixture, aqueous with cosolvent or surfactant or cyclodextrin, Dehydrated alcohol 40%-PEG400 20%-water 40% (w/w), read-out: Solubility
  solubility at 24 h: 17400 µg/mL (≈ 16.7 mM)
Dehydrated alcohol-PEG400-water solvent mixture, aqueous with cosolvent or surfactant or cyclodextrin, Dehydrated alcohol 40%-PEG400 30%-water 30% (w/w), read-out: Solubility
  solubility at 24 h: 111000 µg/mL (≈ 106 mM)
Dehydrated alcohol-PEG400-water solvent mixture, aqueous with cosolvent or surfactant or cyclodextrin, Dehydrated alcohol 40%-PEG400 40%-water 20% (w/w), read-out: Solubility
  solubility at 24 h: > 49100 µg/mL
Dehydrated alcohol-PEG400-water solvent mixture, aqueous with cosolvent or surfactant or cyclodextrin, Dehydrated alcohol 50%-PEG400 30%-water 20% (w/w), read-out: Solubility
  solubility at 24 h: > 49700 µg/mL
Dehydrated alcohol-PEG400-water solvent mixture, aqueous with cosolvent or surfactant or cyclodextrin, Dehydrated alcohol 50%-PEG400 40%-water 10% (w/w), read-out: Solubility
  solubility at 24 h: > 48500 µg/mL
Dehydrated alcohol-propylene glycol-water solvent mixture, aqueous with cosolvent or surfactant or cyclodextrin, Dehydrated alcohol 10%-propylene glycol 40%-water 50% (w/w), read-out: Solubility
  solubility at 24 h: 540 µg/mL (≈ 0.518 mM)
Dehydrated alcohol-propylene glycol-water solvent mixture, aqueous with cosolvent or surfactant or cyclodextrin, Dehydrated alcohol 10%-propylene glycol 50%-water 40% (w/w), read-out: Solubility
  solubility at 24 h: 1490 µg/mL (≈ 1.43 mM)
Dehydrated alcohol-propylene glycol-water solvent mixture, aqueous with cosolvent or surfactant or cyclodextrin, Dehydrated alcohol 20%-propylene glycol 10%-water 70% (w/w), read-out: Solubility
  solubility at 24 h: 40 µg/mL (≈ 0.0383 mM)
Dehydrated alcohol-propylene glycol-water solvent mixture, aqueous with cosolvent or surfactant or cyclodextrin, Dehydrated alcohol 30%-propylene glycol 10%-water 60% (w/w), read-out: Solubility
  solubility at 24 h: 200 µg/mL (≈ 0.192 mM)
Dehydrated alcohol-propylene glycol-water solvent mixture, aqueous with cosolvent or surfactant or cyclodextrin, Dehydrated alcohol 30%-propylene glycol 20%-water 50% (w/w), read-out: Solubility
  solubility at 24 h: 2520 µg/mL (≈ 2.42 mM)
Dehydrated alcohol-propylene glycol-water solvent mixture, aqueous with cosolvent or surfactant or cyclodextrin, Dehydrated alcohol 30%-propylene glycol 30%-water 40% (w/w), read-out: Solubility
  solubility at 24 h: 6390 µg/mL (≈ 6.13 mM)
Dehydrated alcohol-propylene glycol-water solvent mixture, aqueous with cosolvent or surfactant or cyclodextrin, Dehydrated alcohol 30%-propylene glycol 40%-water 30% (w/w), read-out: Solubility
  solubility at 24 h: 25200 µg/mL (≈ 24.2 mM)
Dehydrated alcohol-propylene glycol-water solvent mixture, aqueous with cosolvent or surfactant or cyclodextrin, Dehydrated alcohol 30%-propylene glycol 50%-water 20% (w/w), read-out: Solubility
  solubility at 24 h: > 178000 µg/mL
Dehydrated alcohol-propylene glycol-water solvent mixture, aqueous with cosolvent or surfactant or cyclodextrin, Dehydrated alcohol 35%-propylene glycol 35%-water 30% (w/w), read-out: Solubility
  solubility at 24 h: 52300 µg/mL (≈ 50.1 mM)
Dehydrated alcohol-propylene glycol-water solvent mixture, aqueous with cosolvent or surfactant or cyclodextrin, Dehydrated alcohol 35%-propylene glycol 40%-water 25% (w/w), read-out: Solubility
  solubility at 24 h: 62700 µg/mL (≈ 60.1 mM)
Dehydrated alcohol-propylene glycol-water solvent mixture, aqueous with cosolvent or surfactant or cyclodextrin, Dehydrated alcohol 35%-propylene glycol 50%-water 15% (w/w), read-out: Solubility
  solubility at 24 h: > 189000 µg/mL
Dehydrated alcohol-propylene glycol-water solvent mixture, aqueous with cosolvent or surfactant or cyclodextrin, Dehydrated alcohol 40%-propylene glycol 10%-water 50% (w/w), read-out: Solubility
  solubility at 24 h: 3020 µg/mL (≈ 2.89 mM)
Dehydrated alcohol-propylene glycol-water solvent mixture, aqueous with cosolvent or surfactant or cyclodextrin, Dehydrated alcohol 40%-propylene glycol 20%-water 40% (w/w), read-out: Solubility
  solubility at 24 h: 19500 µg/mL (≈ 18.7 mM)
Dehydrated alcohol-propylene glycol-water solvent mixture, aqueous with cosolvent or surfactant or cyclodextrin, Dehydrated alcohol 40%-propylene glycol 30%-water 30% (w/w), read-out: Solubility
  solubility at 24 h: 49800 µg/mL (≈ 47.7 mM)
Dehydrated alcohol-propylene glycol-water solvent mixture, aqueous with cosolvent or surfactant or cyclodextrin, Dehydrated alcohol 40%-propylene glycol 40%-water 20% (w/w), read-out: Solubility
  solubility at 24 h: > 97600 µg/mL
